Data: PMC5118696, “Identification of inhibitors that dually target the new permeability pathway and dihydroorotate dehydrogenase in the blood stage of Plasmodium falciparum” (Scientific Reports, 2016)
Like-named read-outs stand apart in the source and are kept apart here.

Experiments:
[1] = test system: Hyp1-NLuc Plasmodium falciparum-infected erythrocytes (new permeability pathway, NPP); assay: microbe, parasite or virus in culture; conditions: Erythrocyte, 0.33 h, read-out: Mean RLU at 28 min (As % of DMSO control)
[2] = test system: Hyp1-NLuc Plasmodium falciparum-infected erythrocytes (new permeability pathway, NPP); assay: microbe, parasite or virus in culture; conditions: Erythrocyte, 0.33 h, read-out: % of control remaining

Structure (SMILES) | activity at 2 µM [1] [%] | activity at 2 µM [2] [%]
Cc1ccc2c(C)nc(Nc3nc(C)cc(-c4ccccc4)n3)nc2c1 [MMV007041] | 104 | 98.8
CC(C)CNC(=O)c1c(N)n(CCc2ccccc2F)c2nc3ccccc3nc12 [MMV396744] | 108 | 110
CCCCNc1nc(NC(C)(C)C)nc(NC(C)(C)C)n1 [MMV665864] | 119 | 130
OCCNc1nc(Nc2ccc(Cl)c(Cl)c2)nc2ccccc12 [MMV001041] | 97.4 | 95.1
c1ccc2c(NCCCCCCNc3c4c(nc5ccccc35)CCCC4)c3c(nc2c1)CCCC3 [MMV019555] | 101 | 109
N=c1c2ccccc2nnn1-c1cccc(C(F)(F)F)c1 [MMV665923] | 94.3 | 89.5
COc1ccc2c(c1)OC(O)(C(F)(F)C(F)(F)F)CC2=O (centres unmarked) [MMV007839] | 104 | 93.7
O=C(Nc1ccc(Cl)cc1C(=O)Nc1ccncc1)c1ccc(Cl)cc1Cl [MMV666057] | 105 | 119
COc1ccc(CN2CCN(Cc3ccccc3)CC2)c(O)c1 [MMV665944] | 96.8 | 99.6
Oc1ccc2ccccc2c1CNc1nc2ccccc2[nH]1 [MMV011832] | 107 | 102
CCOc1ccccc1CN1CCc2nc3cc(C(C)(C)C)nn3c(O)c2C1 [MMV396595] | 88.3 | 86.5
O=C(NC(c1ccccc1)c1ccc2cccnc2c1O)c1ccccc1 (centres unmarked) [MMV666080] | 104 | 114
CCn1c2c(c(=N)c3c1CCC3)CCCC2 [MMV000340] | 105 | 104
CN(C)CCNc1cc(-c2ccccc2)nc2ccccc12 [MMV006704] | 90.8 | 92
c1ccc(-c2ccc(-c3nc4ccccc4[nH]3)cc2)cc1 [MMV665891] | 109 | 122
CCn1c(SCC(=O)Nc2cc(C(F)(F)F)ccc2Cl)nc2ccccc2c1=O [MMV666103] | 100 | 113
O=C(NC1CCCCC1)C(c1cccs1)N(CCc1ccccc1)C(=O)c1ccco1 (centres unmarked) [MMV666106] | 96.6 | 105
Cc1cc(N(C)C)nc(Nc2ccc(NC(=O)Nc3ccccc3)cc2)n1 [MMV020243] | 106 | 104
COc1ccc(C2c3ccc4ccccc4c3Oc3ncn(CCCN(C)C)c(=N)c32)cc1 (centres unmarked) [MMV667491] | 87.3 | 69.1
CCN1CCN(c2c(C(=O)c3ccccc3)cnc3cc(OC)c(OC)cc23)CC1 [MMV008474] | 97.3 | 102
Cc1cc(Nc2ccc3ccccc3c2)n2ncnc2n1 [MMV011099] | 99.9 | 99.8
O=C(CCc1ccccc1)c1ccccc1OCC(O)CN1CCCCC1 (centres unmarked) [MMV009015] | 107 | 106
CCOc1ccc(Nc2c3ccccc3nc3ccccc23)cc1 [MMV000304] | 107 | 109
COc1ccc(C(=O)Nc2ccc3nc(N4CCCCC4)cc(C)c3c2)cc1OC [MMV019758] | 100 | 108

Structure (SMILES) | activity at 2 µM [1] [%] | activity at 2 µM [2] [%]
Cc1cc(C)c2nc(N3CCC(C(=O)NCCCN4CCC(N5CCCCC5)CC4)CC3)sc2c1 [MMV019780] | 107 | 111
CCCCc1c(CCC)c(=N)c2ccccc2n1C [MMV007764] | 110 | 111
CCOc1ccc(-c2nonc2NC(=O)c2cccc(C)c2)cc1OCC [MMV665805] | 106 | 107
CCCCCCc1cc(O)c2c3c(c(=O)oc2c1)CCC(C)C3 (centres unmarked) [MMV665987] | 89.8 | 94.7
CCOc1cc(Cl)c(C(C)NC(=O)c2cccc(OC)c2)cc1OCC (centres unmarked) [MMV665803] | 113 | 124
Clc1ccc2c(N3CCCC3)ccnc2c1 [MMV007363] | 114 | 115
COc1ccc(C(=O)NC(c2ccccc2Cl)c2cc(Cl)c3cccnc3c2O)cc1 (centres unmarked) [MMV666022] | 104 | 113
CCC(O)c1ccc(Br)cc1NC(=O)c1cccc(Cl)c1 (centres unmarked) [MMV020654] | 113 | 105
Cc1cc(NC(=O)c2ccc(-c3ccccc3)cc2)no1 [MMV018984] | 111 | 110
O=C(NC1CCN(Cc2ccccc2)CC1)c1cc(C(=O)NC2CCN(Cc3ccccc3)CC2)cc(C(=O)NC2CCN(Cc3ccccc3)CC2)c1 [MMV019881] | 110 | 111
CCN(CC)CCn1c(=N)n(CC(O)c2ccc(Cl)c(Cl)c2)c2ccccc21 (centres unmarked) [MMV000248] | 97.6 | 98.3
COc1ccccc1N1C(=N)SC(=Cc2ccc(OCc3ccccc3F)cc2)C1=O [MMV007199] | 86.7 | 62.6
COc1ccc(CCN2C(=O)c3[nH]nc(-c4cc(Cl)c(C)cc4O)c3C2c2ccccc2F)cc1 (centres unmarked) [MMV396717] | 96.5 | 80.3
CN(C)c1ccc(C=Cc2nc(=O)c3ccccc3o2)cc1 [MMV006309] | 36.4 | 19
CCOC(=O)c1cnc2c(C)cc(C)cc2c1Nc1ccc(OC)c(OC)c1 [MMV008294] | 104 | 97.1
CC1CC(C)CN(C(=O)c2ccc(Cl)cc2Cl)C1 (centres unmarked) [MMV001344] | 106 | 107
COc1ccc2c(=O)cc(C(Cl)(Cl)Cl)oc2c1 [MMV665820] | 105 | 102
CCN(CC)c1cc(C)c2cc(NC(=O)c3cccc(OC)c3)ccc2n1 [MMV000498] | 107 | 118
COc1ccccc1N1CCN(C(CNS(=O)(=O)c2ccc(Cl)cc2)c2cccnc2)CC1 (centres unmarked) [MMV665914] | 102 | 97.5
COc1ccc(OC)c(C2C3=C(CC(C)(C)CC3=O)N(c3ccc(Cl)c(Cl)c3)C3=C2C(=O)CC(C)(C)C3)c1 [MMV007208] | 102 | 104
CCOc1cc(Br)c(C(C)NC(=O)c2cccc(OC)c2)cc1OCC (centres unmarked) [MMV665796] | 106 | 115
Clc1ccc2[nH]c3c(NCCCN4CCOCC4)ncnc3c2c1 [MMV006587] | 116 | 102
Cc1ccc(-c2cc3nc4c(c(O)n3n2)CCCC4)cc1 [MMV006937] | 100 | 58.4
COc1cc(C(=O)ON=C(N)Cc2cccc3ccccc23)cc(OC)c1OC [MMV666687] | 106 | 104

Structure (SMILES) | activity at 2 µM [1] [%] | activity at 2 µM [2] [%]
CCCc1c(C)nc2ccccc2c1O [MMV666081] | 105 | 115
COc1cccc(Nc2nc(N)c3ccccc3n2)c1 [MMV019199] | 98.1 | 97.7
CN(C)CCCNCc1ccc(-c2ccc(F)c(Cl)c2)o1 [MMV020505] | 105 | 106
COc1ccc(-c2cc3c(nn2)-c2ccccc2C3=O)cc1 [MMV666026] | 98.8 | 108
COc1cccc(-c2nn(C)c3sc(C(=O)NCCN4CCN(c5ccccc5F)CC4)cc23)c1 [MMV019064] | 110 | 118
CN1CCN(c2ccc(Nc3c4ccccc4nc4ccccc34)cc2)CC1 [MMV006172] | 97.7 | 96.4
Cn1c(=O)n(C)c2cc(CNCCNc3ccnc4cc(Cl)ccc34)ccc21 [MMV665875] | 95.9 | 88.8
CCN1CCN(Cc2ccc(NC(=O)c3cc4ccc5cccnc5c4[nH]3)cc2)CC1 [MMV020548] | 92.8 | 55.5
COc1ccc(C=C2SC(Nc3ccc(F)cc3)=NC2=O)c(OC)c1 [MMV084434] | 36.5 | 27.1
CCCCCCOC(=O)C1=C(C)NC(=O)NC1c1ccccc1F (centres unmarked) [MMV007686] | 107 | 105
CCOC(=O)C1CCN(C(=O)CN2C(=O)c3ccccc3C2c2c[nH]c3ccccc23)CC1 (centres unmarked) [MMV011576] | 107 | 107
O=C1c2ccccc2C2=Nc3ccccc3SC(c3cccc(F)c3)C12 (centres unmarked) [MMV006389] | 98.3 | 102
CN(C)c1ccc(C(O)(c2ccc(N(C)C)cc2)c2ccc(N(C)C)cc2)cc1 [MMV665941] | 98.3 | 96.5
CCOc1cccc(C(=O)Nc2ccc(-c3nc4ccccc4[nH]3)cc2)c1 [MMV019202] | 118 | 117
COc1ccc(C2Sc3ccccc3N=C3C2=C(O)c2ccccc23)cc1 (centres unmarked) [MMV000563] | 101 | 106
O=C(Nc1ccc(Cl)cc1)N1CCN(c2ccc3nncn3n2)CC1 [MMV665917] | 53.8 | 27.3
CCOC(=O)c1cnc2ccc(OC)cc2c1Nc1ccc(N2CCN(C)CC2)cc1 [MMV000704] | 106 | 94.6
Cc1ccc(-c2cc3c(nn2)-c2ccccc2C3=O)cc1 [MMV666021] | 104 | 99.7
Cc1cccc(-n2ncc3c(=O)[nH]c(-n4nc(C)cc4NC(=O)c4cc5ccccc5o4)nc32)c1 [MMV403679] | 109 | 109
CCCCc1ccc(NS(=O)(=O)c2cc3c4c(c2)CCN4C(=O)CC3)cc1 [MMV001255] | 100 | 89.2
CC(C)(C)c1ccc(C(=O)Nc2c3c(nn2-c2cccc(Cl)c2)CSC3)cc1 [MMV666123] | 104 | 108
COc1cc2c3cc1Oc1c(OC)c(OC)cc4c1C(Cc1ccc(O)c(c1)Oc1ccc(cc1)CC3N(C)CC2)N(C)CC4 (centres unmarked) [MMV007474] | 104 | 103
